According to US9931346B2, “Serotonin-norepinephrine reuptake inhibitors (SNRIs) and Sigma receptor ligands combinations” (LABORATORIOS DEL DR. ESTEVE S.A., priority 2013, dated 2018):
Counter-ions that a name gives are not always drawn.

System: mechanical allodynia of the post-operative pain model
Test: Mechanical allodynia (von Frey filaments) in the post-operative pain model (plantar incision) in rats
Assay type: in vivo
Description: The induction of anesthesia in rats was performed with 3% isofluran for veterinary use, employing an Ohmeda vaporizer and an anesthesia chamber. Anesthesia was kept during the surgical operation by a tube which directs the isofluran vapors to the animal's snout. Once the rats were anesthetized, they were laid down in a prone position and their right hind paws were cleaned out with alcohol.
Then, a skin incision in the hindpaw of about 10 mm was made by means of a scalpel, starting about 5 mm from the heel and extending toward the toes. Fascia was located and by means of curve scissors muscle was elevated and a longitudinal incision of about 5 mm was made, thus the muscle origin and insertion remained intact. The skin of the paw was stitched with a suturing stitch with breaded silk (3.0) and the wound was cleaned out with povidone.
The assessment was performed 30 minutes after the administration of product and always 4 hours after the plantar incision. The analysis was carried out evaluating the mechanical allodynia. It was tested using von Frey filaments: Animals were placed in methacrylate cylinders on an elevated surface, with metallic mesh floor perforated in order to apply the filaments. After an acclimation period of about 30 minutes within the cylinders, both hindpaws were stimulated (the injured and the non-injured paw, serving the latter as control), starting with the lowest force filament (0.4 g) and reaching a 15 g filament. The animal's response to pain was manifested by the withdrawal of the paw as a consequence of the painful stimulus caused by a filament.
The efficacy of the combined use of venlafaxine and compound 63.HCl was tested at different doses of compound 63.HCl (5, 10, 20, 40 and 80 mg/kg), while the venlafaxine dose remained constant (2.5 mg/kg). The administrations were performed 3.5 hours after surgery. The treated subjects were tested according to the mechanical allodynia protocol above (FIG. 1).
The efficacy of the combined use of duloxetine and compound 63.HCl was tested at different doses of compound 63.HCl (10, 20, 40 and 80 mg/kg), while the duloxetine dose remained constant (0.625 mg/kg). The administrations were performed 3.5 hours after surgery. The treated subjects were tested according to the mechanical allodynia protocol above (FIG. 2).

Cc1cc(OCCN2CCOCC2)nn1-c1ccc2ccccc2c1 [compound 63.HCl, 4-{2-[5-Methyl-1-(naphthalen-2-yl)-1H-pyrazol-3-yloxy]ethyl}morpholine hydrochloride]
maximum effect (analgesia, mechanical allodynia) (FIG. 1, compound 63.HCl alone, 5-80 mg/kg, assessed 30 min after administration, 4 h after plantar incision): 43% | ED50 (Rattus norvegicus, FIG. 2, compound 63.HCl alone, 10-80 mg/kg, read-out: ED50 (analgesia, mechanical allodynia)): 40 mg/kg

COc1ccc(C(CN(C)C)C2(O)CCCCC2)cc1 (stereo not shown) [Venlafaxine, venlafaxine]
effect on mechanical allodynia (analgesia) (FIG. 1, Venlafaxine alone, sub-active dose 2.5 mg/kg): non-significant effect

CNCC[C@H](Oc1cccc2ccccc12)c1cccs1 [Duloxetine, duloxetine]
effect on mechanical allodynia (analgesia) (FIG. 2, Duloxetine alone, sub-active dose 0.625 mg/kg): non-significant effect
